Reference: PubChem BioAssay (NCI)
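Step 1: Grow cells in 96-well plates. Step 2: Expose to compound for 48 hours at 5 concentrations. Step 3: Interpolate endpoints linearly; if unreached, use highest concentration. TGI denotes the concentration required for complete inhibition of growth.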

Assays:
Assay in all cases: NCI tumour cell line growth inhibition, 48 h
[1] = system: A498 renal
[2] = system: HOP-92 NSCLC
[3] = system: SF-268 CNS
[4] = system: TK-10 renal
[5] = system: HCT-116 colon
[6] = system: IGROV1 ovarian
[7] = system: SK-MEL-5 melanoma
[8] = system: HT29 colon
[9] = system: MOLT-4 leukemia
[10] = system: SR leukemia
[11] = system: OVCAR-3 ovarian
[12] = system: RXF 393 renal
[13] = system: COLO 205 colon
[14] = system: SF-539 CNS
[15] = system: OVCAR-5 ovarian
[16] = system: MDA-MB-231 breast
[17] = system: U251 CNS
[18] = system: NCI-H226 lung
[19] = system: T-47D breast

SMILES | TGI [1] | TGI [2] | TGI [3] | TGI [4] | TGI [5] | TGI [6] | TGI [7] | TGI [8] | TGI [9] | TGI [10] | TGI [11] | TGI [12] | TGI [13] | TGI [14] | TGI [15] | TGI [16] | TGI [17] | TGI [18] | TGI [19]
CC(C)c1cccc(C(C)C)c1NC(=O)C(=O)CC(=O)CC(c1ccccc1)c1c(O)c2ccccc2oc1=O (stereo not given) | > 100 µM | > 100 µM | > 100 µM | > 100 µM | > 100 µM | > 100 µM | > 100 µM | > 100 µM | > 100 µM | > 100 µM | > 100 µM | > 100 µM | > 100 µM | > 100 µM | > 100 µM |  |  |  | 
CCN(CC)CCSc1n[nH]c(-c2c[nH]c3nc(C)ccc3c2=O)n1 | > 100 µM |  | > 100 µM | > 100 µM | > 100 µM | > 100 µM | > 100 µM | > 100 µM | > 100 µM |  | > 100 µM | > 100 µM | > 100 µM |  | > 100 µM | > 100 µM | > 100 µM | > 100 µM | > 100 µM
O=C1NC(=O)[C@@H](OCC2CCCCC2)[C@@H]2OCC3OC(C(O)C3O)C12 (stereo not given in full) | > 100 µM |  | > 100 µM | > 100 µM | > 100 µM | > 100 µM | > 100 µM | > 100 µM | > 100 µM | > 100 µM | > 100 µM | > 100 µM | > 100 µM | > 100 µM | > 100 µM | > 100 µM |  | > 100 µM | > 100 µM
OC1CSCCCSCCSCCCSC1 | > 100 µM | > 100 µM | > 100 µM | > 100 µM | > 100 µM | > 100 µM | > 100 µM | > 100 µM | > 100 µM |  | > 100 µM | > 100 µM | > 100 µM | > 100 µM | > 100 µM | > 100 µM | > 100 µM | > 100 µM | > 100 µM
COC(=O)/C=C\[C@@H]1[C@H](C)N1S(=O)(=O)c1ccc(C)cc1 (stereo not given in full) | > 100 µM |  | > 100 µM | > 100 µM | > 100 µM | > 100 µM | > 100 µM | > 100 µM | > 100 µM | > 100 µM | > 100 µM | > 100 µM | > 100 µM | > 100 µM | > 100 µM | > 100 µM | > 100 µM | > 100 µM | > 100 µM
CC(O)CCNC(=O)Nc1c(C(F)(F)F)cc(-c2ccccc2)[nH]c1=O (stereo not given) | > 100 µM | > 100 µM | > 100 µM | > 100 µM | > 100 µM | > 100 µM | > 100 µM | > 100 µM | > 100 µM |  | > 100 µM | > 100 µM | > 100 µM |  | > 100 µM | > 100 µM | > 100 µM | > 100 µM | > 100 µM
C[n+]1c2ccccc2c(C(=O)NC(CCCN=C(N)N)C(=O)O)c2ccccc21 (stereo not given) | > 100 µM |  | > 100 µM | > 100 µM | > 100 µM | > 100 µM | > 100 µM | > 100 µM | > 100 µM | > 100 µM | > 100 µM |  | > 100 µM | > 100 µM | > 100 µM | > 100 µM | > 100 µM |  | > 100 µM
COC(=O)c1ccc(/C=C2\Cc3ccccc3C2=O)cc1 |  |  | > 100 µM | > 100 µM | > 100 µM |  | > 100 µM | > 100 µM | > 100 µM | > 100 µM | > 100 µM | > 100 µM | > 100 µM | > 100 µM |  | > 100 µM | > 100 µM |  | > 100 µM
CN(C(=O)[C@@H](NC(=O)OC(C)(C)C)c1ccccc1)[C@H]1CCCC[C@@H]1N1CCCC1 | > 100 µM |  | > 100 µM | > 100 µM | > 100 µM | > 100 µM | > 100 µM | > 100 µM | > 100 µM | > 100 µM | > 100 µM |  | > 100 µM | > 100 µM | > 100 µM | > 100 µM | > 100 µM | > 100 µM | > 100 µM
COC(=O)/C(=N\N)C(C(=O)C(=O)Nc1cccc([N+](=O)[O-])c1)c1nc2ccc(C(=O)c3ccccc3)cc2[nH]c1=O (stereo not given) |  | > 100 µM | > 100 µM | > 100 µM | > 100 µM | > 100 µM | > 100 µM | > 100 µM | 89.8 µM |  | > 100 µM | > 100 µM | > 100 µM | > 100 µM | > 100 µM | > 100 µM | > 100 µM | > 100 µM | 
CC(C)(O)/C=C\P(C)(=O)c1ccccc1 (stereo not given) |  | > 100 µM | > 100 µM | > 100 µM | > 100 µM | > 100 µM | > 100 µM | > 100 µM |  | > 100 µM | > 100 µM | > 100 µM | > 100 µM | > 100 µM | > 100 µM |  | > 100 µM | > 100 µM | > 100 µM
COc1cccc(CCn2c(N)c(C(=O)O)c3ccc([N+](=O)[O-])cc3c2=O)c1 | > 100 µM |  | > 100 µM |  | > 100 µM | > 100 µM | > 100 µM | > 100 µM | > 100 µM | > 100 µM | > 100 µM | > 100 µM | 45.9 µM |  | > 100 µM | 72.8 µM | > 100 µM | > 100 µM | > 100 µM
CC(C)(C)OC(=O)NNC(=O)C1Cc2ccccc2OC1=O (stereo not given) |  |  | > 100 µM | > 100 µM | > 100 µM | > 100 µM | > 100 µM | > 100 µM | > 100 µM | > 100 µM | > 100 µM | > 100 µM |  | > 100 µM | > 100 µM |  | > 100 µM | > 100 µM | 
O=C1CCc2nc3ncccc3cc2C1 | > 100 µM | > 100 µM | > 100 µM | > 100 µM | > 100 µM | > 100 µM | > 100 µM |  | > 100 µM |  | > 100 µM | > 100 µM | > 100 µM |  | > 100 µM | > 100 µM |  | > 100 µM | > 100 µM
